Assay results from patent US20260256751A1, “COMBINATION OF BETA-2-ADRENERGIC RECEPTOR AGONISTS AND GLP-1 RECEPTOR AGONISTS FOR USE IN TREATING HYPERGLYCAEMIA” (ATROGI AB, priority 2023, published 2026).

Legend:
[1] = test system: differentiated L6-myotubes; assay: cAMP production relative to isoprenaline (Biological example 2 of WO 2019/053427); assay type: cell-based; conditions: compound at 10 μM, activity relative to isoproterenol at 10 μM; for Emax at 10 µM: 0.25 h
Source text: For example, the level of cAMP production induced by a given compound can be determined by reference to the amount induced by a defined concentration of that compound relative to that induced by the same concentration of a reference compound, such as isoprenaline, using techniques known to those skilled in the art (e.g. following the protocol as described in the biological examples provided in WO 2019/053427, i.e. in cells, such as differentiated L6-myotubes, having been stimulated with isoprenaline or the compound with a final concentration of 1×10^−5 M, for 15 min in stimulation buffer, such as HBSS supplemented with 1% BSA, 5 mM HEPES and 1 mM IBMX, at pH 7.4).
(§1) Compounds described in publications referenced and incorporated herein were screened in accordance with the procedures outlined in Biological example 1 and Biological example 2 of WO 2019/053427.

[2] = test system: differentiated L6-myotubes; assay: Glucose uptake screen (Biological example 1 of WO 2019/053427); assay type: cell-based; conditions: compound at 10 μM, activity relative to isoproterenol at 10 μM; for Emax at 10 µM: read-out: Biological example 1 of WO 2019/053427 (GU)
Protocol: as §1
L6-myoblasts were grown in Dulbecco's Modified Eagle's Medium (DMEM) containing 1 g/L glucose supplemented with 10% fetal bovine serum (FBS), 2 mM L-glutamine, 50 U/mL penicillin, […] streptomycin and 10 mM HEPES. Cells were plated at 1x 10^5 cells per mL in 24-well plates. After reaching 90% confluence the cells were grown in medium containing 2% FBS for 7 days where upon cells differentiated into myotubes. The differentiated L6-myotubes were serum-starved overnight in medium containing 0.5% fatty-acid free BSA and stimulated with Compound A at a final concentration of 1×10^−5 M in the presence of the selective β2-adrenergic receptor antagonist ICI-118551. After 1 h 40 min the cells were washed with warm, glucose free medium twice and another portion of agonist was added to the glucose free medium. After another 20 min of incubation the cells were exposed to 50 nM ^3H-2-deoxyglucose for 10 min before washed in ice cold glucose free medium three times and lysed in 400 µl/well 0.2 M NaOH for 1 h at 60° C. The cell lysate was mixed with 4 ml scintillation buffer (Emulsifier Safe, Perkin Elmer) and the radioactivity was detected in a P-counter (Tri-Carb 4810TR, Perkin Elmer).

Row | Compound | Emax at 10 µM [1] [%] | Emax at 10 µM [2] [%] | Biological example of WO 2019/053427 (cAMP) [1] | Biological example 1 of WO 2019/053427 (GU) [2]
1 | CC(C)(NC[C@H](O)c1cccc(F)c1)[C@H]1CC[C@@H](OCC(=O)O)CC1 [Compound 408, [(1S,4s)-4-{1-[(R)-2-(m-fluorophenyl)-2-hydroxyethylamino]-1-methylethyl}cyclohexyloxy]acetic acid] | < 25 | 50 to 75 |  | 
2 | CC(C)(CC[C@H]1CC[C@H](C(=O)O)CC1)NC[C@H](O)c1cncc(F)c1 [Compound 343, (1R,4r)-4-{3-[(R)-2-(5-fluoro-3-pyridyl)-2-hydroxyethylamino]-3-methylbutyl}cyclohexanecarboxylic acid] | < 25 | 25 to 50 |  | 
3 | CC(=O)N[C@H]1CC[C@@H](C[C@@H]2CC[C@H]([C@@H](O)c3cccc(F)c3)N2)CC1 [Compound 483, N-[(1R,4s)-4-({(2S,5R)-5-[(S)-(m-fluorophenyl)hydroxymethyl]-2-pyrrolidinyl}methyl)cyclohexyl]acetamide] | < 25 | < 25 |  | 
4 | CCCCNCC(O)c1ccc(Cl)c(N)c1 (centres unmarked) [Compound 36, 1-(3-amino-4-chlorophenyl)-2-(butylamino)-1-ethanol] | < 25 | 25 to 50 |  | 
5 | CC(C)(C[C@H]1CC[C@@H](NC(=O)C(C)(C)C)CC1)NC[C@H](O)c1cccc(F)c1 [Compound 455, N-[(1S,4s)-4-{2-[(R)-2-(m-fluorophenyl)-2-hydroxyethylamino]-2-methylpropyl}cyclohexyl]2,2-dimethylpropionamide] | < 25 | 50 to 75 |  | 
6 | CC(C)(CC[C@H]1CC[C@@H](O)CC1)NC[C@H](O)c1cncc(F)c1 [Compound 296, (R)-2-{1,1-dimethyl-3-[(1s,4R)-4-hydroxycyclohexyl]propylamino}-1-(5-fluoro-3-pyridyl)-1-ethanol] | < 25 | > 75 |  | 
7 | O[C@@H](c1cncc(F)c1)C12CCC(COCc3ccc(OC(F)(F)F)cc3)(CC1)N2 [Compound 489, (S)-(5-fluoro-3-pyridyl)(4-{[(p-trifluoromethoxyphenyl)methoxy]methyl}-7-azabicyclo[2.2.1]hept-1-yl)methanol] | < 25 | < 25 |  | 
8 | CC(C)(NC[C@H](O)c1cccc(F)c1)[C@H]1CC[C@H](C(=O)O)CC1 [Compound 368, (1R,4r)-8-[(R)-2-(m-fluorophenyl)-2-hydroxyethylamino]-7-hydroxy-p-menthan-7-one] | < 25 | 25 to 50 |  | 
9 | CC12CC(C1)[C@@H]([C@@H](O)c1cccc(F)c1)N2 [Compound 189, (S)-{(S)-1-methyl-2-azabicyclo[2.1.1]hex-3-yl}(m-fluorophenyl)methanol] | < 25 | 50 to 75 |  | 
10 | CO[C@@H]1CCC[C@H](C(C)(C)NC[C@H](O)c2cncc(F)c2)C1 [Compound 257, (R)-2-{1-[(1S,3R)-3-methoxycyclohexyl]-1-methylethylamino}-1-(5-fluoro-3-pyridyl)-1-ethanol] | < 25 | 50 to 75 |  | 
11 | COc1ccc(C[C@H]2CC[C@H]([C@H](O)c3cccc(F)c3)N2)cc1 [Compound 374, (R)-{(2R,5R)-5-[(p-methoxyphenyl)methyl]-2-pyrrolidinyl}(m-fluorophenyl)methanol] | < 25 | > 75 |  | 
12 | CC(C)(NC[C@H](O)c1cccc(F)c1)[C@H]1CC[C@H](N)CC1 [Compound 381, (R)-1-(m-fluorophenyl)-2-{1-methyl-1-[(1r,4R)-4-aminocyclohexyl]ethylamino}-1-ethanol] | < 25 | 50 to 75 |  | 
13 | CO[C@H]1CC[C@@H](CCNC[C@H](O)c2cncc(F)c2)CC1 [Compound 238, (R)-1-(5-fluoro-3-pyridyl)-2-{2-[(1s,4S)-4-methoxycyclohexyl]ethyl-amino}-1-ethanol] | < 25 | > 75 |  | 
14 | CC12CC(C1)[C@@H]([C@@H](O)c1cccc(Cl)c1)N2 [Compound 207, (S)-{(S)-1-methyl-2-azabicyclo[2.1.1]hex-3-yl}(m-chlorophenyl)methanol] | < 25 | 25 to 50 |  | 
15 | O[C@@H](c1cccc(F)c1)C12CCC(CCc3ccc(Cl)cc3)(CC1)N2 [Compound 527, (S)-{4-[2-(p-chlorophenyl)ethyl]-7-azabicyclo[2.2.1]hept-1-yl}(m-fluorophenyl)methanol] | < 25 | < 25 |  | 
16 | CC(C)(CC[C@H]1CC[C@@H](O)CC1)NC[C@H](O)c1cccc(F)c1 [Compound 295, (R)-2-{1,1-dimethyl-3-[(1s,4R)-4-hydroxycyclohexyl]propylamino}-1-(m-fluorophenyl)-1-ethanol] | < 25 | > 75 |  | 

Row | Compound | Emax at 10 µM [1] [%] | Emax at 10 µM [2] [%] | Biological example of WO 2019/053427 (cAMP) [1] | Biological example 1 of WO 2019/053427 (GU) [2]
17 | CC(C)(CC[C@H]1CC[C@H](N)CC1)NC[C@H](O)c1cncc(F)c1 [Compound 358, (R)-2-{1,1-dimethyl-3-[(1r,4R)-4-aminocyclohexyl]propylamino}-1-(5-fluoro-3-pyridyl)-1-ethanol] | < 25 | 25 to 50 |  | 
18 | CN([C@H]1CC[C@@H](CC(C)(C)NC[C@H](O)c2cccc(F)c2)CC1)S(C)(=O)=O [Compound 498, (R)-2-{1,1-dimethyl-2-[(1s,4S)-4-(N-mesyl-N-methylamino)cyclohexyl]ethylamino}-1-(m-fluorophenyl)-1-ethanol] | < 25 | 25 to 50 |  | 
19 | O[C@@H](CNC[C@H]1CC[C@@H](O)CC1)c1cccc(F)c1 [Compound 268, (R)-1-(m-fluorophenyl)-2-({[(1s,4S)-4-hydroxycyclohexyl]meth-yl}amino)-1-ethanol] | < 25 | 25 to 50 |  | 
20 | CCCCNC[C@H](O)c1cnc(N)nc1 [Compound 89, (R)-1-(2-amino-5-pyrimidinyl)-2-(butylamino)-1-ethanol] | < 25 | 50 to 75 |  | 
21 | O[C@H](c1cccc(F)c1)C12CCC(CCc3cccnc3)(CC1)N2 [Compound 446, (R)-(m-fluorophenyl){4-[2-(3-pyridyl)ethyl]-7-azabicyclo[2.2.1]hept-1-yl}methanol] | 50 to 75 | > 75 |  | 
22 | CCC[C@@H]1CC[C@H]([C@H](O)c2cncc(F)c2)N1 [Compound 161] |  |  | − (less than 25%) | + (between 50 and 25%)
23 | O[C@@H](CNC[C@H]1CC[C@@H](OCc2ccccc2)CC1)c1cccc(F)c1 [Compound 262, (R)-1-(m-fluorophenyl)-2-({[(1s,4S)-4-(benzyloxy)cyclohexyl]methyl}amino)-1-ethanol] | < 25 | 25 to 50 |  | 
24 | CC(=O)N[C@H]1CC[C@@H](CC(C)(C)NC[C@H](O)c2cncc(F)c2)CC1 [Compound 467, N-[(1S,4s)-4-{2-[(R)-2-(5-fluoro-3-pyridyl)-2-hydroxyethylamino]-2-methylpropyl}cyclohexyl]acetamide] | < 25 | > 75 |  | 
25 | CO[C@H]1CC[C@@H](CCCNC[C@H](O)c2cncc(F)c2)CC1 [Compound 260, (R)-1-(5-fluoro-3-pyridyl)-2-{3-[(1s,4R)-4-methoxycyclohexyl]propyl-amino}-1-ethanol] | < 25 | > 75 |  | 
26 | CCOC(=O)CO[C@H]1CC[C@@H](C(C)(C)NC[C@H](O)c2cccc(F)c2)CC1 [Compound 407, ethyl [(1S,4s)-4-{1-[(R)-2-(m-fluorophenyl)-2-hydroxyethylamino]-1-methylethyl}cyclohexyloxy]acetate] | < 25 | 50 to 75 |  | 
27 | CC1(C)CC[C@@H]([C@@H](O)c2cccc(O)c2)N1 [Compound 143, m-{(S)-[(S)-5,5-dimethyl-2-pyrrolidinyl]hydroxymeth-yl}phenol] | < 25 | < 25 |  | 
28 | CC(=O)N[C@H]1CC[C@@H](CC(C)(C)NC[C@H](O)c2cccc(C#N)n2)CC1 [Compound 421, N-[(1R,4s)-4-{2-[(S)-2-(6-cyano-2-pyridyl)-2-hydroxyethylamino]-2-methylpropyl}cyclohexyl]acetamide] | < 25 | > 75 |  | 
29 | CCCCNCC(O)c1cc(O)cc(O)c1 (centres unmarked) [Compound 26, 5-[2-(butylamino)-1-hydroxyethyl]resorcinol] | < 25 | 50 to 75 |  | 
30 | CC(C)(CC[C@H]1CC[C@H](O)CC1)NC[C@H](O)c1cncc(F)c1 [Compound 289, (R)-2-{1,1-dimethyl-3-[(1r,4S)-4-hydroxycyclohexyl]propyl-amino}-1-(5-fluoro-3-pyridyl)-1-ethanol] | < 25 | 25 to 50 |  | 
31 | CC(C)(C)NC[C@H](O)c1cccc(C#N)n1 [Compound 387, 6-[(S)-2-(tert-butylamino)-1-hydroxyethyl]-2-pyridinecarbonitrile] | 25 to 50 | > 75 |  | 
